pIC50: −log10 of the molar value.
Experiments:
[1] = target: 5-hydroxytryptamine receptor 2A (Homo sapiens, UniProt P28223); assay: Antagonist activity at 5HTR2A (unknown origin) assessed as inhibition of 5-HTR2A
[2] = target: hERG (KCNH2) (Homo sapiens, UniProt Q12809); assay: Inhibition of hERG at 10 uM relative to control; format: toxicity
Sequence of hERG (KCNH2) (Q12809 whole entry): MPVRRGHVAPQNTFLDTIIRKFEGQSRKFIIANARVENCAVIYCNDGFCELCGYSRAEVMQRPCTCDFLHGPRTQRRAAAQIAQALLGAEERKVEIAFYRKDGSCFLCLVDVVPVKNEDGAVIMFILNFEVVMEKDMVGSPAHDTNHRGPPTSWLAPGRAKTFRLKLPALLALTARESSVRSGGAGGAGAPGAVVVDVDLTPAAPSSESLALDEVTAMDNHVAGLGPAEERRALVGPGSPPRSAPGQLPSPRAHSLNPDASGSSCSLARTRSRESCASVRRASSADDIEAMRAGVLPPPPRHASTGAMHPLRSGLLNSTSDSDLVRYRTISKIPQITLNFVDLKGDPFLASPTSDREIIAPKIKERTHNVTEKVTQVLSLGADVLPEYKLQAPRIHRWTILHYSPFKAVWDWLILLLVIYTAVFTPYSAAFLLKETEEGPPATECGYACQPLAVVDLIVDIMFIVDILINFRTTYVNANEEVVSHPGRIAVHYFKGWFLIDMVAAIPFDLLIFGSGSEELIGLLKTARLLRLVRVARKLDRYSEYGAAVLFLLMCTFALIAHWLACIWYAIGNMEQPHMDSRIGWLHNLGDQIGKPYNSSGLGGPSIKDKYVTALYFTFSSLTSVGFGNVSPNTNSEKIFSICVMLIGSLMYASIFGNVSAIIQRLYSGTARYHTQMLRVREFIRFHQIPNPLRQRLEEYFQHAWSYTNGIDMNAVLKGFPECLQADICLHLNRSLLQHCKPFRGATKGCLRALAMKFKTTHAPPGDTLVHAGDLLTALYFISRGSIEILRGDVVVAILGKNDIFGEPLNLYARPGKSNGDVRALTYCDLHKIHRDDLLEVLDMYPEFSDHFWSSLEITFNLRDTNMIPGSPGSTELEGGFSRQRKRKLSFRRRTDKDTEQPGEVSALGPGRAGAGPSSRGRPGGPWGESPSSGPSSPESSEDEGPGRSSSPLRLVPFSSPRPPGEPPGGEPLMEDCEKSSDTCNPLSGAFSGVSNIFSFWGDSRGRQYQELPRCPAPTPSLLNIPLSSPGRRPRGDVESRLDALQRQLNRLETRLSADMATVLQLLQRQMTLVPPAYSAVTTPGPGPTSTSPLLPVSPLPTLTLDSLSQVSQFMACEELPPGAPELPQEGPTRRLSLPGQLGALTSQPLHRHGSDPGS

Sequence of 5-hydroxytryptamine receptor 2A (P28223 whole entry): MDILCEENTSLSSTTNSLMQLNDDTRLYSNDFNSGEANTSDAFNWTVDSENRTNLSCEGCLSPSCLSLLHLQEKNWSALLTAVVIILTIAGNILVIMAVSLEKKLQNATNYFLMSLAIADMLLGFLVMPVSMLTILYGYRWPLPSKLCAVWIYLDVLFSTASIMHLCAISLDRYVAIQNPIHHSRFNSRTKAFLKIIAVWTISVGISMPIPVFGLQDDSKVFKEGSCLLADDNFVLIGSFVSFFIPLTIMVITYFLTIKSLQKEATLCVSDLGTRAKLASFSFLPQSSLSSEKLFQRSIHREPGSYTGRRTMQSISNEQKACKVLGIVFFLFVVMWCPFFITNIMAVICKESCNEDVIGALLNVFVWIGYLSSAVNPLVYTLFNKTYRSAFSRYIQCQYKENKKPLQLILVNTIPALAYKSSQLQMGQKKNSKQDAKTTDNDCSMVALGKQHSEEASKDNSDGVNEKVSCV

Row | pIC50 [1] | Compound | inhibition at 10 µM [2] [%]
1 | 7.44 | O=C(NCc1ccc(OCC(O)CN2CCN(c3noc4cc(F)ccc34)CC2)cc1)N(Cc1c(F)cc(F)cc1F)C1CCNCC1 (centres undefined) | 83.6
2 | 7.33 | O=C(NCc1ccc(OCC(O)CN2CCN(c3noc4cc(F)ccc34)CC2)cc1)N(Cc1ccc(F)cc1F)C1CCNCC1 (centres undefined) | 87.7
